Results reported in PubChem BioAssay AID463199 (Broad Institute, 2010).
The source made the active and inactive calls.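 Rule for the calls: active = AC50, the dose giving half-maximal effect, exceeds a fixed cutoff for a compound that rescues yeast growth under heat; inactive = the rest, inconclusive results apart.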

Test system: S. cerevisiae Burl-1 ts mutant growth, BacTiter-Glo, 38.5C 24 h
Test: restored growth of temperature-sensitive Burl-1 yeast – whole organism, S. cerevisiae, Burl-1 ts mutant, luminescence, counter-screen for SUMOylation pathway inhibitor project, dose response (AID 463199)

| Compound | AC50 |
| --- | --- |
| COC(=O)c1ccc(/C=N/NC(=O)C(=O)NCC2CCCO2)cc1 (stereo not drawn) | > 42 µM (inactive) |
| CC(C)(C)c1cc(NCCCn2ccnc2)n2ncc(-c3ccc(Cl)cc3)c2n1 | > 42 µM (inactive) |
| COc1ccccc1-c1nc2ccccc2nc1-c1ccccc1OC | > 42 µM (inactive) |
| CCc1nn(C)c(N)c1C | > 42 µM (inactive) |
| CCOC(=O)CSc1cc(C)nc2ccc(OC)cc12 | > 42 µM (inactive) |
| Cc1ccc(-n2c(C)cc(/C=N/NC(=O)c3ccncc3)c2C)cc1C | > 42 µM (inactive) |
| COC(=O)c1sccc1NC(=S)N1CCCCC1 | > 42 µM (inactive) |
| O=C(OCCCN=C1NS(=O)(=O)c2ccccc21)c1cccs1 | > 42 µM (inactive) |
| O=C(NCC(c1cccs1)N1CCOCC1)c1ccccc1NS(=O)(=O)c1cc([N+](=O)[O-])ccc1Cl (stereo not drawn) | > 42 µM (inactive) |
| O=C(Nc1ccc2[nH]c(=O)[nH]c2c1)c1c(F)c(F)c(F)c(F)c1F | 25.8 µM |
| CCCNC(=O)CN(c1ccc(F)cc1)S(=O)(=O)c1ccc2c(c1)OCCO2 | > 42 µM (inactive) |
| Cc1ccc(C)c(C(C)NC(=O)c2ccncc2)c1 (stereo not drawn) | > 42 µM (inactive) |
| NS(=O)(=O)c1ccc(CCNC(=O)c2ccc([N+](=O)[O-])s2)cc1 | > 42 µM (inactive) |
| COc1ccc(C2SCC(=O)Nc3c2c(=O)[nH]n3C2CCCCC2)cc1 (stereo not drawn) | > 42 µM (inactive) |
| COc1ccc(C(=O)NC(=S)Nc2ccc(CN3CCCCC3)cc2)cc1Cl | > 42 µM (inactive) |
| c1ccc2cc(Cn3ccnc3)ccc2c1 | > 42 µM (inactive) |
| COC(=O)c1ccc(CN2CCN(C3CCCCC3)C(CCO)C2)cc1 (stereo not drawn) | > 42 µM (inactive) |
| O=C(CSc1ncccc1C(=O)O)NC1CCCCC1 | > 42 µM (inactive) |
| O=C(NCC1CCCO1)c1nn2c(C(F)(F)F)cc(-c3cc(Br)cs3)nc2c1Br (stereo not drawn) | > 42 µM (inactive) |
| C=CCn1c(-c2ccc(OC)cc2)nc2ccccc21 | > 42 µM (inactive) |
| Cc1cc(NC(=O)CSc2ncn(-c3ccccc3)n2)no1 | > 42 µM (inactive) |
| CCC(=O)N1CCc2cc(S(=O)(=O)CCC(=O)Nc3cccc(C)n3)ccc21 | > 42 µM (inactive) |
| CCC(C)(C)NC(=O)C(c1ccc(C)cc1)N(CC1CCCO1)C(=O)CNC(=O)c1cccs1 (stereo not drawn) | > 42 µM (inactive) |
| CCn1c(N2CCN(C(=O)C34CC5CC(CC(C5)C3)C4)CC2)nc2ccccc21 | > 42 µM (inactive) |
| CCCCCC(=O)Nc1nnn(CCC)n1 | > 42 µM (inactive) |

| Compound | AC50 |
| --- | --- |
| CCn1nc(C(=O)OCc2cccc(S(=O)(=O)N(C)C)c2)c2ccccc2c1=O | > 42 µM (inactive) |
| O=C(Nc1ccc([N+](=O)[O-])cn1)C1CC1 | > 42 µM (inactive) |
| O=C(O)C1C2CCC(O2)C1C(=O)NCCC1=CCCCC1 (stereo not drawn) | 13.6 µM |
| O=C(O)c1cc(Oc2ccc(C(F)(F)F)cc2Cl)ccc1[N+](=O)[O-] | > 42 µM (inactive) |
| COC(=O)c1cc2c(s1)-c1ccc(OC)cc1CC2 | > 42 µM (inactive) |
| CC(=O)Nc1ccc(S(=O)(=O)Nc2ccc(S(=O)(=O)Nc3ncccn3)cc2)cc1 | > 42 µM (inactive) |
| NS(=O)(=O)c1cccc(NC(=O)CSc2nnnn2-c2ccccc2)c1 | > 42 µM (inactive) |
| CN(C)c1ccc(NC(=O)CSc2nc(N)c(C(=O)Nc3ccc(N(C)C)cc3)s2)cc1 | > 42 µM (inactive) |
| COc1cc2nc(CSc3ncn[nH]3)[nH]c(=O)c2cc1OC | > 42 µM (inactive) |
| CN(C)c1ccc(/C=N\Nc2ccccn2)cc1 | > 42 µM (inactive) |
| Cc1cccc(Cn2c(C(=O)OC(C)C)cc3c2ccn3C)c1 | > 42 µM (inactive) |
| CCOC(=O)/C(C#N)=C\c1ccc(CC)s1 | > 42 µM (inactive) |
| CC1(C)C=C(c2ccc(O)cc2)CC(C)(C)N1 | > 42 µM (inactive) |
| Nc1cc[n+](CC(=O)Nc2ccccc2)cc1 | > 42 µM (inactive) |
| COc1ccccc1CNCc1cc(OC)c(OC)c(OC)c1 | > 42 µM (inactive) |
| O=C(Nc1ccc2oc(-c3ccccc3F)nc2c1)c1ncn[nH]1 | > 42 µM (inactive) |
| Cc1nc(CSc2nnc3scc(-c4ccccc4)n23)cs1 | > 42 µM (inactive) |
| Cc1[nH]c2ccccc2c1/C=N/NC(=O)c1cccc(Br)c1 | > 42 µM (inactive) |
| O=C(O)CCSc1ccc([N+](=O)[O-])cc1[N+](=O)[O-] | > 42 µM (inactive) |
| CC(C)Oc1ccc(C2(C#N)CC[N+](C)(C)CC2)cc1 | > 42 µM (inactive) |
| O=C(OCC#CCSc1nnc(-c2ccccc2)o1)c1cc2ccccc2o1 | > 42 µM (inactive) |
| CCOC(=O)Cn1c(C)c(Br)c(=O)c2cccc(C)c21 | > 42 µM (inactive) |
| CCOc1ccc2nc(C(C)O)[nH]c2c1 (stereo not drawn) | > 42 µM (inactive) |
| CC1(C)CNc2cc([N+](=O)[O-])ccc2S1 | > 42 µM (inactive) |
| CCOc1ccc(C)cc1S(=O)(=O)n1nc(C)cc1C | > 42 µM (inactive) |

| Compound | AC50 |
| --- | --- |
| CC(C)COc1ccc(C(=O)Nc2ccc([N+](=O)[O-])cc2)cc1 | > 42 µM (inactive) |
| CCOc1ccc(S(=O)(=O)N2CCC(C(=O)N3CCN(c4ccccc4)CC3)CC2)cc1 | > 42 µM (inactive) |
| O=C(O)CCC(=O)Nc1cccc(C(=O)Nc2ccc(Br)cc2)c1 | > 42 µM (inactive) |
| N=c1ncn(CC(O)CO)c2nc(N3CCOCC3)[nH]c12 (stereo not drawn) | > 42 µM (inactive) |
| COc1ccc2c(c1)OC[C@H]1[C@H]2N2C(=O)c3cc(F)ccc3NC(=O)[C@@]2(C)[C@H]1c1ccccc1 | > 42 µM (inactive) |
| Cc1ccc(S(=O)(=O)NCc2ccc(C(=O)N3CCN(c4ccccn4)CC3)cc2)cc1 | > 42 µM (inactive) |
| O=c1cc(COc2ncnc3ccccc23)nc2sccn12 | > 42 µM (inactive) |
| Cc1nnc(SCC(=O)NC(C)(C)C)n1NCc1ccc(Cl)cc1 | > 42 µM (inactive) |
| Cc1ccc(S(=O)(=O)Oc2ccccc2N2C(=O)C3CC=CCC3C2=O)cc1 (stereo not drawn) | > 42 µM (inactive) |
| Oc1c(Br)cc(Br)cc1C=Nc1cccnc1 | > 42 µM (inactive) |
| CC(C)CC(=O)Nc1ccc(C(=O)CN2C(=O)NC3(CCOc4ccccc43)C2=O)cc1 (stereo not drawn) | > 42 µM (inactive) |
| COc1ccc(/C=N\Nc2ccc([N+](=O)[O-])cc2)c(C(=O)O)c1OC | > 42 µM (inactive) |
| Nc1nnc(COc2ccc(Br)cc2Br)s1 | > 42 µM (inactive) |
| COc1cccc(/C=C2\SC(N3CCC(C)CC3)=NC2=O)c1OC | > 42 µM (inactive) |
| CN1C(=O)C(=Cc2cn(CC(=O)N3CCCC3)c3ccccc23)C(=O)N(C)C1=O | > 42 µM (inactive) |
| NC(=O)NC(=O)CSc1nc(C2CCCCC2)n(-c2ccccc2)n1 | > 42 µM (inactive) |
| O=c1[nH]cnc2cc(Cl)ccc12 | 4 µM |
| CC(=O)C1(c2ccccc2)CCNCC1 | > 21 µM (inactive) |
| N#CC1=C(N)Oc2n[nH]c(CSc3ccccc3)c2C12C(=O)Nc1ccccc12 (stereo not drawn) | > 42 µM (inactive) |
| Cc1cccc(OCC(O)CN2C(C)(C)CC(O)CC2(C)C)c1 (stereo not drawn) | > 42 µM (inactive) |
| CCOC(=O)N1CCN(c2cc3[nH]c(=S)[nH]c3cc2F)CC1 | > 42 µM (inactive) |
| Cc1ccc(NC(=O)CSCC(=O)Nc2ccccc2N2CCCC2)cc1 | > 42 µM (inactive) |
| COc1ccc(N2CCN(C(=O)Cn3nnc(-c4ccc(OC)c(OC)c4)n3)CC2)cc1 | > 42 µM (inactive) |
